Results: patent US20240383891A1, “BENZIMIDAZOLE AND RELATED ANALOGS FOR INHIBITING YAP/TAZ-TEAD” (SpringWorks Therapeutics, Inc., priority 2023, published 2024)

Experiments:
Type in all cases: cell-based
NCI-H226 = test: mesothelioma cell line proliferation assay, NCI-H226; details: Homo sapiens, 144 h; NCI-H226 mesothelioma cells, 6 days incubation, ATPlite cell viability
Experimental: (§1) Mesothelioma cell lines, NCI-H226 and NCI-H2052 (both sourced from the ATCC cell culture collection) are plated in 96-well plates (Corning® 96 Well White Polystyrene Microplate clear flat bottom, white polystyrene (TC-Treated)), at 1500 cells/well in full medium (RPMI 1640 ATCC modification with L-glutamine, HEPES, Phenol Red, Sodium Pyruvate, High glucose, Low sodium bicarbonate and 10% fetal bovine serum). Cells are incubated overnight at 37° C. in an incubator with 5% CO2. Then compounds, dissolved in DMSO, are added in dose-response. Cells are incubated with compound dilutions for another 6 days at 37° C. in an incubator with 5% CO2. Cell viability is quantitated using the ATPlite kit (Perkin-Elmer) and the luminescence is read-out using an Envision instrument (Perkin-Elmer). The amount of relative light units produced using the ATPlite kit is used to calculate percent of inhibition. The activities of some example compounds are depicted in Table 4. The activity ranges A, B and C refer to EC50 values in the mesothelioma cell line proliferation assay as described as follows: “A”: EC50<1 μM; “B”: 1 μM s […] and “C”: EC50>10 μM; NT: not tested.

NCI-H2052 = test: mesothelioma cell line proliferation assay, NCI-H2052; details: Homo sapiens, 144 h; NCI-H2052 mesothelioma cells, 6 days incubation, ATPlite cell viability
Experimental: as §1

[1] = tested on: YAP/TAZ-TEAD transcription; test: reporter gene assay for measuring the inhibition of YAP/TAZ-TEAD transcription (TEAD-responsive element luciferase reporter in Hek293T cells); details: Homo sapiens, HEK-293T; Hek293T cells transiently transfected with TEAD-responsive element luciferase reporter, 24 hours incubation
Experimental: Example 21: Activity of compounds of the disclosure in a reporter gene assay for measuring the inhibition of YAP/TAZ-TEAD transcription Hek293T cells are cultured in DMEM supplemented with 10% fetal bovine serum, Sodium pyruvate, Sodium bicarbonate, L-glutamine. The cells are harvested and transiently transfected with TEAD-responsive element luciferase reporter. Transfected cells are plated in 384-well plate containing pre-diluted compounds. After 24 hours incubation at 37° C./5% CO2, assay plates were cooled to room temperature and levelled to an equal volume per well, prior to the addition of 25 uL luciferase substrate SteadyLite (Perkin Elmer)/well. The plate was shaken for 10 min at 600 rpm, centrifuged for 1 min at 500 rpm and measured with an Envision reader (PerkinElmer). The amount of relative light units produced by the TEAD reporter is used to calculate the percentage of inhibition. The percent of reporter inhibition was calculated in the presence of a positive control inhibitor (100% inhibition) versus a condition with the presence of the vehicle basal activity of the reporter (0% inhibition). The ability of a test compound to inhibit this activity was determined as: Percentage inhibition=[[…]((RLU determined in the presence of vehicle—RLU determined for sample with test compound present) divided by (RLU determined in the presence of vehicle—RLU determined for sample with positive control inhibitor))] *100.
The activities of example compounds tested are depicted in Table 3. The activity ranges A, B and C refer to IC50 values in the reporter gene assay as follows: “A”: IC50<1 μM; “B”: 1 μM≤IC50 10 μM and “C”: IC50>10 μM; NT=not tested.

C=CC(=O)NCc1nc(C2CCC(F)(F)CC2)c2ccccn12 [Cpd. No. 026, N-((1-(4,4-difluorocyclohexyl)imidazo[1,5-a]pyridin-3-yl)methyl)acrylamide]
< 1 µM: EC50 (NCI-H226) | EC50 (NCI-H2052) | IC50 [1]

CNS(=O)(=O)/C=C/c1nc(-c2ccc(C(F)(F)F)cc2)c2ccccn12 [Cpd. No. 027, (E)-N-methyl-2-(1-(4-(trifluoromethyl)phenyl)imidazo[1,5-a]pyridin-3-yl)ethene-1-sulfonamide]
< 1 µM: EC50 (NCI-H226) | EC50 (NCI-H2052) | IC50 [1]
